Data as given in patent US10450301B2, “Apoptosis signal-regulating kinase 1 inhibitors and methods of use thereof” (ENANTA PHARMACEUTICALS, INC., priority 2017, dated 2019).

These compounds were tested against ASK1 (Homo sapiens (Human), UniProt Q99683) (assay: HTRF KinEASE Assay (TR-FRET, STK3 peptide substrate), inhibition of ASK1). Conditions: 5 nM ASK1 kinase, 1 μM STK3 peptide substrate, 100 μM ATP, 3 hours; compound 0 to 10 μM.
Format: biochemical
Description: Assay HTRF® KinEASE™ Assay
ASK1 was purchased from Thermofisher (Catalogue # PV4011), ATP was purchased from Sigma (Catalogue # A7699), HI-TRF® KinEASE™ Assay System was obtained from Cisbio (Bedford, Mass.). […] HTRF® KinEASE™-STK is a generic method for measuring serine/threonine kinase activities using a time-resolved fluorescence resonance energy transfer (TR-FRET) immunoassay. […] 100 Um ATP is added to start kinase reaction and incubated for 3 hours. The STK3-antibody labeled with Eu^3+-Cryptate and 125 Nm streptavidin-XL665 are mixed in a single addition with stop reagents provided by the Cisbio kit used to stop the kinase reaction. […] The resulting TR-FRET is proportional to the phosphorylation level. Staurosporine was used as the positive control. IC50 was determined by Xlfit 5.3.
By using above method, the inhibition of ASK1 was evaluated for the compounds of Formula (I).

Sequence of ASK1 (Q99683 whole entry): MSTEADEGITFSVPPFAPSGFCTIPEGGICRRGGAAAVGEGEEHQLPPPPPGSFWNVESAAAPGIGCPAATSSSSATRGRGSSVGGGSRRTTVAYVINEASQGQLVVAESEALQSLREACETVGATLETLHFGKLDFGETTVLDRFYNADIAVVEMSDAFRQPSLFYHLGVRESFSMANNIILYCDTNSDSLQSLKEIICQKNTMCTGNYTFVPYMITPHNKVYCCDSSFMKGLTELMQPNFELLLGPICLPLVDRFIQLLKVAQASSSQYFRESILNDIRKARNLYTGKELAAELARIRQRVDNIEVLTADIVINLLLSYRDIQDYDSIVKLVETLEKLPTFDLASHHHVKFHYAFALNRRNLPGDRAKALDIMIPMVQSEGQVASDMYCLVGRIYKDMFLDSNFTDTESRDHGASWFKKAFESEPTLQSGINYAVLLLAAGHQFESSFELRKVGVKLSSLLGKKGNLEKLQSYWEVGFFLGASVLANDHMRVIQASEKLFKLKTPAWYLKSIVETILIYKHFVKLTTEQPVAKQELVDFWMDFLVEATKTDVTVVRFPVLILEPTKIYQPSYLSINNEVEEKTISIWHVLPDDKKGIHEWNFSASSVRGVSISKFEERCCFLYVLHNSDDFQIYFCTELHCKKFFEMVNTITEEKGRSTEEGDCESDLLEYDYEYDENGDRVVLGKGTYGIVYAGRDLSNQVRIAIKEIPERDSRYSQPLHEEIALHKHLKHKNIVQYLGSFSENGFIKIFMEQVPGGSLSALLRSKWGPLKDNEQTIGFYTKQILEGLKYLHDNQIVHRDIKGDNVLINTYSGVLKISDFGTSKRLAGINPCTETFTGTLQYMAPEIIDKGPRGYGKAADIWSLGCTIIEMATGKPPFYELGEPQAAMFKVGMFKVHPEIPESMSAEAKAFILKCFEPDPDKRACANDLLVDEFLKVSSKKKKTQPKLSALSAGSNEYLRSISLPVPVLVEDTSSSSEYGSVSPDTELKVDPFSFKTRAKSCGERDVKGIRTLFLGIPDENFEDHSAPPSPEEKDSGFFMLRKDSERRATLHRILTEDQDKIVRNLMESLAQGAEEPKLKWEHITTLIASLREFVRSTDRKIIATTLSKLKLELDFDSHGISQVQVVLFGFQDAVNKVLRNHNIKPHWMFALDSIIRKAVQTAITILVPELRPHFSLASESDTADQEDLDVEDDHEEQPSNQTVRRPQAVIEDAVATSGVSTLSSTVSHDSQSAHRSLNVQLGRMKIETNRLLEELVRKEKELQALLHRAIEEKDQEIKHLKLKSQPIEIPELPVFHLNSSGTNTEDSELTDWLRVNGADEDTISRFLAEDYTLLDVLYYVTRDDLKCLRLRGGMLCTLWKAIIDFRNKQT

| Compound | IC50 [nM] |
| --- | --- |
| CC(C)n1cnnc1-c1cccc(NC(=O)c2cc3c(cc2F)CCN(S(=O)(=O)C2CCCC2)C3)n1 [Example 21] | 1 to 10 |
| COCCC(=O)N1CCc2cc(F)c(C(=O)Nc3cccc(-c4nnnn4C(C)C)n3)cc2C1 [Example 28] | 10 to 100 |
| CCOC(=O)N1CCc2cc(F)c(C(=O)Nc3cccc(-c4nnnn4C(C)C)n3)cc2C1 [Example 30] | 10 to 100 |
| CC(C)n1nnnc1-c1cccc(NC(=O)c2cc3c(cc2F)CCN(C(=O)OCc2ccccc2)C3)n1 [Example 31] | 10 to 100 |
| CC(C)n1cnnc1-c1cccc(NC(=O)c2ccc3c(c2)CN(C(=O)c2nccs2)CC3)n1 [Example 32] | 10 to 100 |
| C=CCNC(=O)N1CCc2ccc(C(=O)Nc3cccc(-c4nncn4C(C)C)n3)cc2C1 [Example 33] | 10 to 100 |
| CC(C)n1cnnc1-c1cccc(NC(=O)c2ccc3c(c2)CN(C(=O)OC2CCCC2)CC3)n1 [Example 34] | 10 to 100 |
| CCCOC(=O)N1CCc2ccc(C(=O)Nc3cccc(-c4nncn4C(C)C)n3)cc2C1 [Example 35] | 10 to 100 |
| CCOC(=O)N1CCc2ccc(C(=O)Nc3cccc(-c4nncn4C(C)C)n3)cc2C1 [Example 36] | 10 to 100 |
| CC(C)n1cnnc1-c1cccc(NC(=O)c2ccc3c(c2)CNCC3)n1 [Example 37, N-(6-(4-isopropyl-4H-1,2,4-triazol-3-yl)pyridin-2-yl)-1,2,3,4-tetrahydroisoquinoline-7-carboxamide] | 100 to 1000 |
| COCCCN1CCc2ccc(C(=O)Nc3cccc(-c4nncn4C(C)C)n3)cc2C1 [Example 38, N-(6-(4-isopropyl-4H-1,2,4-triazol-3-yl)pyridin-2-yl)-2-(3-methoxypropyl)-1,2,3,4-tetrahydroisoquinoline-7-carboxamide] | 100 to 1000 |
| C=CCN1CCc2ccc(C(=O)Nc3cccc(-c4nncn4C(C)C)n3)cc2C1 [Example 39, 2-allyl-N-(6-(4-isopropyl-4H-1,2,4-triazol-3-yl)pyridin-2-yl)-1,2,3,4-tetrahydroisoquinoline-7-carboxamide] | 100 to 1000 |
| CC(C)n1nnnc1-c1cccc(NC(=O)c2cc3c(cc2F)CCN(S(=O)(=O)CCC(F)(F)F)C3)n1 [Example 40] | 10 to 100 |
| CC(C)n1cnnc1-c1cccc(NC(=O)c2cc3c(cc2F)CCN(S(=O)(=O)CCC(F)(F)F)C3)n1 [Example 46] | 1 to 10 |
| CC(C)n1nnnc1-c1cccc(NC(=O)c2cc3c(cc2F)CCN(c2ccccc2)C3)n1 [Example 54, 6-fluoro-N-(6-(1-isopropyl-1H-tetrazol-5-yl)pyridin-2-yl)-2-phenyl-1,2,3,4-tetrahydroisoquinoline-7-carboxamide] | 10 to 100 |
| COCCS(=O)(=O)N1CCc2cc(F)c(C(=O)Nc3cccc(-c4nnnn4C(C)C)n3)cc2C1 [Example 55] | 10 to 100 |
| CC(C)n1nnnc1-c1cccc(NC(=O)c2cc3c(cc2F)CCN(C(=O)NC2CCCC2)C3)n1 [Example 56] | 10 to 100 |
| CC(C)n1nnnc1-c1cccc(NC(=O)c2cc3c(cc2F)CCN(C(=O)OC2CCCC2)C3)n1 [Example 57] | 10 to 100 |

| Compound | IC50 [nM] |
| --- | --- |
| CC(C)n1nnnc1-c1cccc(NC(=O)c2cc3c(cc2F)CCNC3)n1 [Example 58] | 100 to 1000 |
| C=CCOC(=O)N1CCc2ccc(C(=O)Nc3cccc(-c4nncn4C(C)C)n3)cc2C1 [Example 59, allyl 7-((6-(4-isopropyl-4H-1,2,4-triazol-3-yl)pyridin-2-yl)carbamoyl)-3,4-dihydroisoquinoline-2(1H)-carboxylate] | 10 to 100 |
| COCCC(=O)N1CCc2ccc(C(=O)Nc3cccc(-c4nncn4C(C)C)n3)cc2C1 [Example 60] | 10 to 100 |
| CC(C)n1cnnc1-c1cccc(NC(=O)c2ccc3c(c2)CN(C(=O)NC2CCCC2)CC3)n1 [Example 61] | 10 to 100 |
| C=CCCOC(=O)N1CCc2ccc(C(=O)Nc3cccc(-c4nncn4C(C)C)n3)cc2C1 [Example 64] | 10 to 100 |
| CC(C)n1cnnc1-c1cccc(NC(=O)c2ccc3c(c2)CN(C(=O)OCCF)CC3)n1 [Example 65] | 10 to 100 |
| CC(C)COC(=O)N1CCc2ccc(C(=O)Nc3cccc(-c4nncn4C(C)C)n3)cc2C1 [Example 66] | 10 to 100 |
| CC(C)n1cnnc1-c1cccc(NC(=O)c2ccc3c(c2)CN(C(=O)OCc2ccccc2)CC3)n1 [Example 67, benzyl 7-((6-(4-isopropyl-4H-1,2,4-triazol-3-yl)pyridin-2-yl)carbamoyl)-3,4-dihydroisoquinoline-2(1H)-carboxylate] | 10 to 100 |
| CC1NCCc2cc(F)c(C(=O)Nc3cccc(-c4nnnn4C(C)C)n3)cc21 (centres unmarked) [Example 68, 6-fluoro-N-(6-(1-isopropyl-1H-tetrazol-5-yl)pyridin-2-yl)-1-methyl-1,2,3,4-tetrahydroiso-quinoline-7-carboxamide] | 100 to 1000 |
| CC1c2cc(C(=O)Nc3cccc(-c4nnnn4C(C)C)n3)c(F)cc2CCN1C(=O)N1CCCC1 (centres unmarked) [Example 69] | 10 to 100 |
| CC1c2cc(C(=O)Nc3cccc(-c4nnnn4C(C)C)n3)c(F)cc2CCN1S(=O)(=O)CCC(F)(F)F (centres unmarked) [Example 70] | 10 to 100 |
| CC(C)c1nnnn1-c1cccc(NC(=O)c2cc3c(cc2F)CCNC3)n1 [Example 71] | > 1000 |
| CC(=O)OC[C@@H](C)n1nnnc1-c1cccc(NC(=O)c2cc3c(cc2F)CCN(C(=O)N(C)CC(F)(F)F)C3)n1 [Example 72] | > 1000 |
| CC(=O)OC[C@@H](C)n1nnnc1-c1cccc(NC(=O)c2cc3c(cc2F)CCN(C(=O)N2CCCC2)C3)n1 [Example 73] | > 1000 |
| CC1c2cc(C(=O)Nc3cccc(-c4nnnn4C(C)C)n3)c(F)cc2CCN1C(=O)OCc1ccccc1 (centres unmarked) [Example 74, benzyl 6-fluoro-7-((6-(1-isopropyl-1H-tetrazol-5-yl)pyridin-2-yl)carbamoyl)-1-methyl-3,4-dihydroisoquinoline-2(1H)-carboxylate] | 100 to 1000 |
| C[C@H](CO)n1nnnc1-c1cccc(NC(=O)c2cc3c(cc2F)CCN(C(=O)N(C)CC(F)(F)F)C3)n1 [Example 75, (R)-6-fluoro-N7-(6-(1-(1-hydroxypropan-2-yl)-1H-tetrazol-5-yl)pyridin-2-yl)-N2-methyl-N2-(2,2,2-trifluoroethyl)-3,4-dihydroisoquinoline-2,7(1H)-dicarboxamide] | 10 to 100 |
| C[C@H](CO)n1nnnc1-c1cccc(NC(=O)c2cc3c(cc2F)CCN(C(=O)N2CCCC2)C3)n1 [Example 76] | 1 to 10 |

Results, then the compound that gave them:

| IC50 [nM] | Compound |
| --- | --- |
| 1 to 10 | CCNS(=O)(=O)N1CCc2cc(F)c(C(=O)Nc3cccc(-c4nncn4C(C)C)n3)cc2C1 [Example 22] |
| 1 to 10 | COCCS(=O)(=O)N1CCc2cc(F)c(C(=O)Nc3cccc(-c4nncn4C(C)C)n3)cc2C1 [Example 23] |
| 1 to 10 | COCCC(=O)N1CCc2cc(F)c(C(=O)Nc3cccc(-c4nncn4C(C)C)n3)cc2C1 [Example 24, 6-fluoro-N-(6-(4-isopropyl-4H-1,2,4-triazol-3-yl)pyridin-2-yl)-2-(3-methoxypropanoyl)-1,2,3,4-tetrahydroisoquinoline-7-carboxamide] |
| 1 to 10 | CC(C)n1cnnc1-c1cccc(NC(=O)c2cc3c(cc2F)CCN(C(=O)OC2CCCC2)C3)n1 [Example 25] |
| 1 to 10 | CCOC(=O)N1CCc2cc(F)c(C(=O)Nc3cccc(-c4nncn4C(C)C)n3)cc2C1 [Example 26] |
| 10 to 100 | CC(C)n1cnnc1-c1cccc(NC(=O)c2cc3c(cc2F)CCNC3)n1 [Example 27] |
| 1 to 10 | CCNC(=O)N1CCc2cc(F)c(C(=O)Nc3cccc(-c4nnnn4C(C)C)n3)cc2C1 [Example 29, N2-ethyl-6-fluoro-N7-(6-(1-isopropyl-1H-tetrazol-5-yl)pyridin-2-yl)-3,4-dihydroisoquinoline-2,7(1H)-dicarboxamide] |
| 1 to 10 | CCN(CC)C(=O)N1CCc2cc(F)c(C(=O)Nc3cccc(-c4nncn4C(C)C)n3)cc2C1 [Example 41] |
| 1 to 10 | CC(C)CS(=O)(=O)N1CCc2cc(F)c(C(=O)Nc3cccc(-c4nncn4C(C)C)n3)cc2C1 [Example 42] |
| 10 to 100 | CC(C)n1cnnc1-c1cccc(NC(=O)c2cc3c(cc2F)CCN(S(=O)(=O)CC2CC2)C3)n1 [Example 43] |
| 1 to 10 | CC(C)n1cnnc1-c1cccc(NC(=O)c2cc3c(cc2F)CCN(C(=O)N2CCCC2)C3)n1 [Example 44] |
| 1 to 10 | CCN(C)C(=O)N1CCc2cc(F)c(C(=O)Nc3cccc(-c4nncn4C(C)C)n3)cc2C1 [Example 45] |
| 1 to 10 | CC(C)n1cnnc1-c1cccc(NC(=O)c2cc3c(cc2F)CCN(S(=O)(=O)C2CC2)C3)n1 [Example 47] |
| 1 to 10 | CC(C)n1cnnc1-c1cccc(NC(=O)c2cc3c(cc2F)CCN(C(=O)N(C)C)C3)n1 [Example 48] |
| 1 to 10 | CC(C)n1cnnc1-c1cccc(NC(=O)c2cc3c(cc2F)CCN(S(=O)(=O)N(C)C)C3)n1 [Example 49] |
| 10 to 100 | CC(C)n1cnnc1-c1cccc(NC(=O)c2cc3c(cc2F)CCN(C(=O)N2CCOCC2)C3)n1 [Example 50] |
| 1 to 10 | CC(C)n1cnnc1-c1cccc(NC(=O)c2cc3c(cc2F)CCN(C(=O)NC2CCCC2)C3)n1 [Example 51] |
| 1 to 10 | CCNC(=O)N1CCc2cc(F)c(C(=O)Nc3cccc(-c4nncn4C(C)C)n3)cc2C1 [Example 52] |
| 10 to 100 | CC(C)n1cnnc1-c1cccc(NC(=O)c2cc3c(cc2F)CCN(C(=O)OCc2ccccc2)C3)n1 [Example 53, benzyl 6-fluoro-7-((6-(4-isopropyl-4H-1,2,4-triazol-3-yl)pyridin-2-yl)carbamoyl)-3,4-dihydroisoquinoline-2(1H)-carboxylate] |
| 1 to 10 | CCCCNC(=O)N1CCc2ccc(C(=O)Nc3cccc(-c4nncn4C(C)C)n3)cc2C1 [Example 62] |
| 1 to 10 | CCNC(=O)N1CCc2ccc(C(=O)Nc3cccc(-c4nncn4C(C)C)n3)cc2C1 [Example 63] |
